# Measurements taken from article PMC9686213, “Peptide Carbocycles: From −SS– to −CC– via a Late-Stage “Snip-and-Stitch”” (ACS Central Science, 2022).
# Where two headings read alike, the source gives them in different places.
# Tests used:
# [1] = ethylene glycol/heptane, cited from earlier work
# [2] = Partition coefficient Peh in ethylene glycol/heptane (permeability, log Peh); type: physicochemical; settings: UPLC peak area at 280 nm
# Source text: (§1) We next examined the effect of our linkers on the biopharmaceutical properties of setmelanotide. The capacity of setmelanotide (SMT) to regulate appetite depends on its ability to penetrate the blood–brain barrier and to activate melanocortin-4 (MC4) receptors in the brain.[79],[80] […] To assess cell permeability, we measured the partition coefficient Peh of our carbocyclic peptides in a mixture of ethylene glycol and heptane.[81]−[84] […] Thus, log Peh values are a good approximation of in vivo permeabilities. […] Finally, we determined the stability of our carbocyclic peptides to aqueous hydrolysis and to reductive cleavage by glutathione (GSH), an approximate measure of their plasma stability.[85] GSH in the cytoplasm can reduce disulfide bonds to dicysteine peptides and can also cleave disulfide bonds through a disulfide exchange reaction.[18]−[21] […] All measurements were compared to setmelanotide (SMT).
# (§2) (1 picture or pasted object on this page, not shown here)
# [3] = Stability to reductive cleavage / disulfide exchange by glutathione (GSH); type: in vitro ADME; settings: pH 7.4, 37 °C
# Source text: We next examined the effect of our linkers on the biopharmaceutical properties of setmelanotide. The capacity of setmelanotide (SMT) to regulate appetite depends on its ability to penetrate the blood–brain barrier and to activate melanocortin-4 (MC4) receptors in the brain.[79],[80] Replacing the −SS– bond of SMT with more lipophilic −CC– linkages could improve the CNS permeability of SMT and could also enhance its proteolytic stability. […] For aqueous solubility, we measured solvation in deionized water (pH 6 at 25 °C). […] To assess cell permeability, we measured the partition coefficient Peh of our carbocyclic peptides in a mixture of ethylene glycol and heptane.[81]−[84] […] Thus, log Peh values are a good approximation of in vivo permeabilities. […]. Thus, many of our carbocyclic analogs should have improved (up to 2.6-fold) blood–brain penetrance in vivo. Finally, we determined the stability of our carbocyclic peptides to aqueous hydrolysis and to reductive cleavage by glutathione (GSH), an approximate measure of their plasma stability.[85] GSH in the cytoplasm can reduce disulfide bonds to dicysteine peptides and can also cleave disulfide bonds through a disulfide exchange reaction.[18]−[21] […] The products were analyzed by LC-MS. […]
# [4] = Hydrolytic stability at pH 8.5, 50 °C, LC-MS analysis; type: physicochemical; settings: 16 h
# Source text: as §1, §2
# [5] = common small molecule CNS drugs
compound,measurement,setting,value
Cc1cc(=O)n(-c2ccccc2)n1C [antipyrine],log Peh,[1]; [5],−2.28
NC(=O)c1ccccc1 [benzamide],log Peh,[1]; reference solutes quoted 'for reference',−3.69
Clc1cccc(Cl)c1N=C1NCCN1 [clonidine],log Peh,[1]; [5],−1.80
c1cc(CN2CCCCC2)cc(OCCCNc2nc3ccccc3s2)c1 [zolantidine],log Peh,[1]; [5],−1.47
setmelanotide [SMT],log Peh,[2],−1.16
same,mixed disulfide formed (disulfide exchange),"[3]; 1 equiv. GSH, after 24 h",2%
same,mixed disulfide formed (disulfide exchange),[3]; 10 equiv. GSH,17%
same,hydrolysis outcome (in words),[4],loss of a single sulfur atom
